This assay addresses SARS-CoV-2 Main Protease (SARS-CoV-2) (UniProt P0DTD1).

Molecules are shown by their SMILES. Where “and” joins values, the source holds several entries; their conditions need not be identical. Equal values may be shown once. Bounds are passed on as bounds.

One may read the IC50 as the midpoint of a concentration-inhibition curve. A low value points to greater potency. Regarding `O=C(Cc1cc(Cl)cc(Nc2ccc(OC(F)(F)F)cc2Cl)c1)Nc1cncc2ccccc12`, the IC50 turned out to be 1.9 µM. For `O=C1N(c2cncc3ccccc23)CCC12CN(S(=O)(=O)CC1(C(F)F)CC1)Cc1ccc(Cl)cc12` (stereo not drawn) the value was 0.155 µM; for `O=C(NCCc1cccc(F)c1)C(c1cccnc1)N(C(=O)c1cocn1)c1ccc2nc(C(F)(F)F)[nH]c2c1` (stereo not drawn), 77.6 µM. For `CC1CCNC(=O)C1NC(=O)Cc1cccc(Cl)c1` (stereo not drawn) the value was 43.7 µM. Consider `CNC(=O)C(C)(C)N1CC(C(=O)Nc2cncc3ccccc23)c2cc(Cl)ccc2C1=O` (stereo not drawn), for which the IC50 was 1.02 µM. As to `Cc1ccc(N(Cc2cccc(Cl)c2)C(=O)Cn2nnc3ccccc32)cc1`, the 50% inhibitory concentration (IC50) was found to be 2.33 µM. To `O=C(Cc1cccc(Cl)c1)Nc1cccc2[nH]ncc12` belongs > 99.5 µM; to `Cc1ccc(C(Cc2cnn(C)c2)C(=O)Nc2n[nH]c3ccccc23)cc1` (stereo not drawn), > 99.5 µM.

For `Cc1nc(CN2C(=O)C(=O)c3cc(Br)ccc32)cs1`, the IC50 was > 99.5 µM. Regarding `O=C(CCl)N1CCCN(S(=O)(=O)c2ccc(F)cc2)CC1`, the IC50 is 44 µM. To `Cc1nnc(C2CCN(C(=O)c3ccc(Br)cc3)CC2)[nH]1` belongs > 99.5 µM; to `O=C(Nc1ccc(-c2nnc[nH]2)cc1)c1cccc(F)c1F`, > 99.5 µM; to `N#CCC(=O)N1CCc2ccc(Cl)cc2C1C(=O)Nc1cncc2ccccc12` (stereo not drawn), 6.51 µM. For `O=C(NCc1ccccn1)[C@H]1CN(C(=O)CCl)CCN1S(=O)(=O)c1ccsc1` (stereo in doubt) the value was 0.307 µM; for `O=C(CCc1cccc(Cl)c1)Nc1cncc2ccccc12`, 20.8 µM; for `O=[N+]([O-])c1cnc(Sc2nnc(-c3ccco3)n2-c2ccc(OCc3ccccc3)cc2)s1`, 7.3 µM.

Regarding `CC(C)(C)c1ccc(N(C(=O)c2ccc(Cl)o2)C(C(=O)NCCc2cccc(F)c2)c2cccnc2)cc1` (stereo not drawn), the IC50 is 0.315 µM. On to `CN(c1cc(Cl)cc(CC(=O)Nc2cncc3ccccc23)c1)[C@@H]1CCN(Cc2ccccc2)C1` (stereo in doubt), for which the IC50 was 2.04 µM. This IC50 is about 6.5-fold higher than that of the compound before. To `N#Cc1nccn1CCCc1cccc(Cl)c1` belongs > 99.5 µM.

With `N#CC1(CS(=O)(=O)N2Cc3ccc(Cl)cc3C3(CCN(c4cncc5cccc(Cl)c45)C3=O)C2)CC1` (stereo not drawn), the IC50 is 7.79 µM. This lies in the single-digit micromolar range. `N#CCNC(=O)CN1Cc2ccc(Cl)cc2C2(CCN(c3cncc4ccccc34)C2=O)C1` (stereo not drawn) showed an IC50 of 0.263 µM.

`O=C(Nc1cncc2ccccc12)C1c2cc(Cl)ccc2CCN1S(=O)(=O)C1CC1` (stereo not drawn): the IC50 turned out to be 1.14 µM. This IC50 is about 4.3-fold higher than that of the compound before. For `O=C(NCC(=O)N1CCCC1c1nc2ccccc2[nH]1)C1CCCC1` (stereo not drawn) the value was > 99.5 µM.

`CNCC1CCCN(C(=O)[C@@H](c2ccccc2)N2Cc3ccccc3C2=O)C1` (stereo in doubt): the IC50 was > 99.5 µM. For `Cc1ccncc1NC(=O)CN(C)S(=O)(=O)c1cccc2cccnc12`, the IC50 is > 99 µM. To `CCCCc1nc(-c2nccn2Cc2ccoc2)c[nH]1` belongs 14.3 µM; to `O=C(NCCc1cccc(F)c1)C(c1cccnc1)N(C(=O)c1cocn1)C1COC2(CCCC2)C1` (stereo not drawn), > 99.5 µM.

In the case of `O=C(Nc1cncc2ccccc12)[C@@H]1COc2ccc(Cl)cc2C1` (stereo in doubt), the IC50 is > 99.5 µM. On to `N#Cc1ccccc1NC(=O)[C@@H](c1ccccc1)N1Cc2ccccc2C1=O` (stereo in doubt), for which the IC50 is > 99.5 µM.

As for `CC(C)(C)c1ccc(N(C(=O)c2cocn2)C(C(=O)NCCc2cccc(F)c2)c2cnccn2)cc1` (stereo not drawn), the IC50 came out at 1.21 µM. In other words, the single-digit micromolar range. For `c1ccc2oc(C3CCCN(Cc4cnc5cnccn45)C3)nc2c1` (stereo not drawn), the IC50 is > 99.5 µM. To `CCN1CCN(c2ccc(Nc3cc(Cl)cc(CC(=O)Nc4cncc5ccccc45)c3)cc2)CC1` belongs 4.3 µM; to `N#Cc1cccc(NC(=O)Nc2c[nH]c3ncccc23)c1`, 63.6 µM.

In turn, `COC(=O)CN1Cc2ccc(Cl)cc2C(C(=O)Nc2cncc3ccccc23)C1` (stereo not drawn) yielded an IC50 of 1.55 µM.

Turning to `C=CC(=O)N(Cc1ccccc1Cl)C(C(=O)NC)c1cncc2ccccc12` (stereo not drawn), the IC50 is > 99.5 µM. For the compound `Cc1ccc(NC2=C(c3ccccc3)C(=O)N(Cc3cccnc3)C2=O)c(C)c1`, the IC50 is > 99.5 µM. `Cc1ccc2ccccc2c1Nc1cc(Cl)cc(CC(=O)Nc2cncc3ccccc23)c1` returned an IC50 of 2.52 µM. `COc1ccc(Nc2cc(Cl)cc(CC(=O)Nc3cncc4ccccc34)c2)cc1C(F)(F)F` registered an IC50 of 1.89 µM.

`N#Cc1cc(F)c(Nc2cc(Cl)cc(CC(=O)Nc3cncc4ccccc34)c2)cc1F` registered an IC50 of 2.12 µM. For `O=C(Cc1cc(Cl)cc(N2CCN(C(=O)C3CC3)CC2)c1)Nc1cncc2ccccc12` the value was 2.01 µM. In turn, `COc1c(Cl)cccc1OCCNC(=O)c1cc(=O)[nH]c2ccccc12` returned an IC50 of 6.39 µM.

Take `CN(C)C(=O)CNC(=O)C(c1cccnc1)N(C(=O)c1cocn1)c1ccc(C(C)(C)C)cc1` (stereo not drawn): the IC50 came to 29.2 µM. For `Cc1ccc(C)c(S(=O)(=O)N2CCN(C(=O)CCl)CC2)c1` the value was 14.2 µM. For `Cc1ccncc1NC(=O)Cc1cccc(F)c1` the value was 96.9 µM and 94.8 µM. `O=C(CCl)N1CCCN(S(=O)(=O)c2ccccc2F)CC1` displayed a concentration for half-maximal inhibition (IC50) of 15.6 µM. To `O=C(Cc1cc(Cl)cc(N2CCN(C(=O)[C@@H]3COc4ccccc4O3)CC2)c1)Nc1cncc2ccccc12` (stereo in doubt) belongs 2.74 µM; to `CCCCc1nc(-c2nccn2CC(F)(F)F)c[nH]1`, 23.1 µM; to `Cc1ncc(CN2Cc3ccc(Cl)cc3C(C(=O)Nc3cncc4ccc(F)cc34)C2)[nH]1` (stereo not drawn), 0.307 µM. In turn, `CCOc1ccc(CNc2cc(Cl)cc(CC(=O)Nc3cncc4ccccc34)c2)cc1` registered an IC50 of 3.41 µM. On to `CC(C)(C)c1ccc(N(C(=O)c2cccc(C#N)c2)C(C(=O)NCCc2cccc(F)c2)c2cccnc2)cc1` (stereo not drawn), for which the IC50 is > 99.5 µM.

Regarding `Cn1ncc2cc(N(C(=O)c3cocn3)C(C(=O)NCCc3cccc(F)c3)c3cccnc3)ccc21` (stereo not drawn), the IC50 was 48 µM. To `Cc1cccc2c(NC(=O)Cc3cccc(Cl)c3)cncc12` belongs > 99.5 µM; to `O=C(NCCc1cccc(F)c1)C(c1cccnc1)N(C(=O)c1cnc[nH]1)C1CCN(c2ccccc2)C1` (stereo not drawn), > 99 µM; to `CN(C)C(=O)CN1CC(C(=O)Nc2cncc3ccccc23)c2cc(Cl)ccc2C1=O` (stereo not drawn), 0.734 µM. For `COc1ccc(N(C(=O)c2ccco2)C(C(=O)NCCc2cccc(F)c2)c2cccnc2)cc1` (stereo not drawn) the value was 30.5 µM; for `O=c1c2ccccc2c(-c2ccc(Br)cc2)nn1CC(O)CN1CCOCC1` (stereo not drawn), > 99.5 µM. As for `Cc1ccncc1NC(=O)Cc1cc(Cl)cc(S(N)(=O)=O)c1`, the IC50 came to 14.6 µM. For `O=C(Cc1ccc(Cl)c(Cl)c1)Nc1cncc2ccncc12` the value was 1.79 µM.

Regarding `O=C(Nc1cncc2ccccc12)[C@@H]1CN(S(=O)(=O)CC2CS(=O)(=O)C2)Cc2ccc(Cl)cc21` (stereo in doubt), the IC50 was found to be 8.23 µM. Consider `COc1ccc2c(NC(=O)C3CCOc4ccc(Cl)cc43)[nH]nc2c1` (stereo not drawn), for which the IC50 was > 99.5 µM.

Turning to `CC(C)(C)c1ccc(N(C(=O)c2cnc(C3CCOC3)s2)C(C(=O)NCCc2cccc(F)c2)c2cccnc2)cc1` (stereo not drawn), the IC50 is > 99.5 µM.

Consider `CN(C)C(C(=O)Nc1cncc2ccccc12)c1ccc(Cl)c(Cl)c1` (stereo not drawn), for which the IC50 was found to be 4.27 µM. `Cc1cc(Nc2cc(Cl)cc(CC(=O)Nc3cncc4ccccc34)c2)c(Cl)cc1F` yielded an IC50 of 2.15 µM. For `CC(C)(C)c1cnc(N(C(=O)c2ccco2)C(C(=O)NCCc2cccc(F)c2)c2cccnc2)s1` (stereo not drawn) the value was 3.94 µM; for `O=C(NCCc1cccc(F)c1)C(c1cccnc1)N(C(=O)c1cocn1)c1ccc(Cn2cccn2)cc1` (stereo not drawn), 8.34 µM.

Consider `O=C(NCCc1cccc(F)c1)C(c1cccnc1)N(C(=O)c1cocn1)c1ccc2scnc2c1` (stereo not drawn), for which the IC50 is 84 µM.

`O=C(Nc1cncc2cc(F)ccc12)[C@H]1CCS(=O)(=O)c2ccc(Cl)cc21` (stereo in doubt) registered an IC50 of 24.5 µM. This IC50 lies about 3.4-fold lower than the previous one. For `N#CC1(CS(=O)(=O)N2Cc3ccc(Cl)cc3C3(CCN(c4cncc5cc(F)cc(Cl)c45)C3=O)C2)CC1` (stereo not drawn) the value was 23.8 µM; for `CC(C)(C)c1ccc(N(C(=O)c2ccncc2)C(C(=O)NCCc2cccc(F)c2)c2cccnc2)cc1` (stereo not drawn), > 99.5 µM. On to `O=C(Cc1cccc(Cl)c1)Nc1cncc2[nH]ccc12`, for which the IC50 was 6.19 µM. This lies in the single-digit micromolar range. For `O=C(Cc1cc(Cl)cc(Nc2nnc(-c3ccncc3)s2)c1)Nc1cncc2ccccc12` the value was 2.19 µM; for `O=C(Cc1cc(Cl)cc(Nc2ccc(Br)nc2)c1)Nc1cncc2ccccc12`, 1.94 µM. `Nc1nc2[nH]cnc2c(=O)n1-c1cc(Cl)cc(CC(=O)Nc2cncc3ccccc23)c1` showed an IC50 of 1.86 µM.

In turn, `Cc1ccc(Cl)cc1N1CCN(c2cc(Cl)cc(CC(=O)Nc3cncc4ccccc34)c2)CC1` registered an IC50 of 3.37 µM.

The compound `O=C(Cc1cc(Cl)cc(Nc2n[nH]c3ccc(Br)cc23)c1)Nc1cncc2ccccc12` came in with an IC50 of 1.83 µM. Compared with the last compound, the IC50 is about 1.8-fold lower.

Compound `O=C1NC[C@@H](C(=O)Nc2cncc3ccccc23)c2cc(Cl)ccc21` (stereo in doubt) gave an IC50 of 99.3 µM. To `COCc1csc(CNC(=O)c2ncc(Cl)cc2Cl)c1` belongs > 99.5 µM; to `COc1ccccc1OCCNC(=O)c1cc(=O)[nH]c2cc(F)ccc12`, > 99.5 µM. To `CCCCc1nc(-c2nccn2CCc2ccccn2)c[nH]1` belongs 21.7 µM; to `CN(C(=O)Cn1nnc2ccccc21)c1ccc(Oc2ccc(C(F)(F)F)cn2)cc1`, 37.8 µM. Turning to `Cc1ccc2cccc(Nc3cc(Cl)cc(CC(=O)Nc4cncc5ccccc45)c3)c2n1`, the IC50 was found to be 4.93 µM. To `CCCC(C(=O)Nc1cnccc1C)c1cccc(Cl)c1` (stereo not drawn) belongs 17.9 µM and 16.8 µM. To `CC(=O)N(CC(=O)Nc1ccc(F)c(Cl)c1)c1cccc(C#N)c1` belongs > 99.5 µM; to `O=C(NCCc1cccc(F)c1)C(c1cccnc1)N(C(=O)c1cnc[nH]1)c1ccc2c(c1)CCCS2(=O)=O` (stereo not drawn), > 99 µM. To `Cc1noc2ncc(CNc3ccc(-c4nnnn4C)cc3)cc12` belongs > 99.5 µM; to `O=C(Cc1cc(Cl)cc(Nc2ccc(F)c(Br)c2)c1)Nc1cncc2ccccc12`, 1.97 µM. In the case of `CC(NC(=O)c1c(Cl)nc2ccccn12)c1nnc2ccccn12` (stereo not drawn), the IC50 was > 99.5 µM. To `CC(C)(C)c1ccc(N(C(=O)c2cn(C3COCC3=O)nn2)C(C(=O)NCCc2cccc(F)c2)c2cccnc2)cc1` (stereo not drawn) belongs 19.5 µM.

The values are drawn from the COVID Moonshot data (paper PMC7615835).
